These results are taken from PubChem BioAssay (NCI).

Test systems include SK-MEL-2 melanoma; TK-10 renal; NCI-H23 lung; MDA-MB-435; NCI-H522 lung; UACC-257 melanoma; SK-MEL-28 melanoma; LOX IMVI melanoma; SR leukemia; IGROV1 ovarian.
Test in all cases: DTP human tumour cell line panel, 48 h

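Tested at 5 concentrations; 48 h exposure; 96-well plates; endpoints linearly interpolated, else capped at highest concentration. At the GI50, growth is halved. TGI denotes the concentration required for complete inhibition of growth.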

Consider `CCc1cc2ncc(CN3CCN(c4ccc(C(=O)NC)nc4)CC3)cc2[nH]c1=O`, for which the GI50 was greater than 100 µM in the assay with SK-MEL-2 melanoma; 43.1 µM in the assay with TK-10 renal; 53.5 µM in the assay on NCI-H23 lung; 85.8 µM in the assay on MDA-MB-435; 27.1 µM in the assay on NCI-H522 lung; 55.1 µM in the assay on UACC-257 melanoma. Also, the GI50 is greater than 100 µM with SK-MEL-28 melanoma, 60 µM in the assay with LOX IMVI melanoma, 11.5 µM with SR leukemia and 57.4 µM with IGROV1 ovarian. Besides, the TGI with SK-MEL-2 melanoma, in the assay with TK-10 renal, in the assay with NCI-H23 lung, with MDA-MB-435, in the assay with NCI-H522 lung and in the assay on UACC-257 melanoma was greater than 100 µM throughout. The TGI in the assay with SK-MEL-28 melanoma, with LOX IMVI melanoma, in the assay with SR leukemia and with IGROV1 ovarian was greater than 100 µM in each case.

`CN1CCN(c2nc(NCCCNc3ccnc4cc(Cl)ccc34)c3ccccc3n2)CC1`: the GI50 with SK-MEL-2 melanoma was 3.18 µM; in the assay on TK-10 renal, 10.8 µM; with NCI-H23 lung it was 10.6 µM; with MDA-MB-435 it was 2.09 µM; in the assay with NCI-H522 lung, 3.24 µM; with UACC-257 melanoma, 2.02 µM. Further, the GI50 was 2.17 µM in the assay with SK-MEL-28 melanoma, 1.96 µM in the assay on LOX IMVI melanoma, 1.74 µM with SR leukemia and 4.52 µM with IGROV1 ovarian. Further, the TGI in the assay with SK-MEL-2 melanoma is 9.09 µM; in the assay with TK-10 renal, 26.2 µM; in the assay with NCI-H23 lung it was 24 µM; in the assay with MDA-MB-435, 4.33 µM; in the assay with NCI-H522 lung it was 7.7 µM; in the assay on UACC-257 melanoma, 3.83 µM. Besides, the total growth inhibition concentration (TGI) in the assay with SK-MEL-28 melanoma turned out to be 4.22 µM; in the assay with LOX IMVI melanoma it was 4.2 µM; in the assay on SR leukemia, 6.05 µM; with IGROV1 ovarian, 18.9 µM.

For `Oc1cccc(/C=N/Nc2nnc(N/N=C/c3cccc(O)c3)c3ccccc23)c1`, the TGI in the assay on SK-MEL-2 melanoma is 83.6 µM; in the assay with TK-10 renal, 50.9 µM; in the assay on NCI-H23 lung it was 48.6 µM; in the assay with MDA-MB-435, 81 µM; with NCI-H522 lung it was 53.1 µM; with UACC-257 melanoma it was greater than 100 µM. Moreover, the TGI amounted to 60.2 µM with SK-MEL-28 melanoma, 34.1 µM with LOX IMVI melanoma, 7.06 µM in the assay with SR leukemia and 47.7 µM in the assay on IGROV1 ovarian.

`NC(N)=Nc1nc2ccc([N+](=O)[O-])cc2[nH]1`: the TGI in the assay on SK-MEL-2 melanoma, in the assay with TK-10 renal, with NCI-H23 lung, in the assay on MDA-MB-435, in the assay with NCI-H522 lung and with UACC-257 melanoma was greater than 100 µM each time. In addition, the TGI in the assay with SK-MEL-28 melanoma, in the assay on LOX IMVI melanoma, in the assay with SR leukemia and in the assay on IGROV1 ovarian was greater than 100 µM each time.

With `C[C@]12CC[C@H]3[C@@H](C[C@@H]4SC(Nc5ccccc5)=N[C@@]45CC(O)CC[C@]35C)[C@@H]1CCC2O` (stereo not given in full), the GI50 in the assay on SK-MEL-2 melanoma is 2.51 µM; with TK-10 renal, 2.91 µM; with NCI-H23 lung, 2.03 µM; in the assay on MDA-MB-435 it was 2.25 µM; in the assay on NCI-H522 lung, 1.9 µM; in the assay with UACC-257 melanoma, 2.54 µM. Besides, the GI50 was 1.68 µM in the assay on SK-MEL-28 melanoma, 1.33 µM in the assay on LOX IMVI melanoma, 0.241 µM in the assay on SR leukemia and 2.78 µM in the assay with IGROV1 ovarian. Moreover, the TGI in the assay on SK-MEL-2 melanoma was 5.64 µM; in the assay with TK-10 renal it was 6.63 µM; with NCI-H23 lung, 5.04 µM; in the assay on MDA-MB-435, 7.03 µM; in the assay with NCI-H522 lung it was 4.5 µM; with UACC-257 melanoma, 6.68 µM. Moreover, the TGI turned out to be 3.99 µM with SK-MEL-28 melanoma, 2.77 µM in the assay with LOX IMVI melanoma, 6.1 µM in the assay on SR leukemia and 7.85 µM with IGROV1 ovarian.

By GI50 is commonly meant the concentration at which growth is held to half of that of the control. By TGI is commonly meant the concentration giving total growth inhibition. Higher therefore signals lower sensitivity of the cells.
